The test deals with T1, HsPKS1 (Huperzia serrata, UniProt A3E7Z7).
T1 sequence (A3E7Z7 1-399): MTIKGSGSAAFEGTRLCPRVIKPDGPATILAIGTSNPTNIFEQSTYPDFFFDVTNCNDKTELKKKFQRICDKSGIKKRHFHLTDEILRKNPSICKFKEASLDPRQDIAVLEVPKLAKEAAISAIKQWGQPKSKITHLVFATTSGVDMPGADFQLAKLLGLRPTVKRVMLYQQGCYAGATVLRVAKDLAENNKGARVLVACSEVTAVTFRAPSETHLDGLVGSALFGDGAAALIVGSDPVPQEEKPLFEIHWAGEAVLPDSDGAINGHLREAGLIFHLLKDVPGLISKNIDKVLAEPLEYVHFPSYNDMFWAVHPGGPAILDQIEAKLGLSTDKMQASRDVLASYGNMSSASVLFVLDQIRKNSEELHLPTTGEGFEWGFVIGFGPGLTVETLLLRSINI
The experiment in a line: product formation by HPLC / LC-MS. It is filed as biochemical. The conditions noted are these: with malonyl-CoA.

Experimental findings from paper PMC9054772 (RSC Advances, 2020) are described below.

`CC(C)(COP(=O)(O)OP(=O)(O)OC[C@H]1O[C@@H](n2cnc3c(N)ncnc32)[C@H](O)[C@@H]1OP(=O)(O)O)[C@@H](O)C(=O)NCCC(=O)NCCSC(=O)Cc1ccccn1` [2-pyridylacetyl-CoA]: the “product formation by HPLC / LC-MS (library screen)” value was “Only two type III PKSs (HsPKS1 and HsPKS3) from H. serrata”.
